# Source: patent US20170071880A1, “SELEGILINE TRANSDERMAL SYSTEM” (KAT Transdermals LLC, priority 2012, published 2017)
# Assay: Solubility of selegiline in pressure sensitive adhesive polymers
# Format: physicochemical
# Text: The invention pertains to the transdermal delivery of selegiline for the treatment of depression, Parkinson's disease and other neurologic conditions. […] Acrylic pressure sensitive adhesives (PSAs) that could be used with the invention include those based on pure acrylate monomers as well as acrylate copolymers and terpolymers using for example as the comonomers vinyl acetate or hydrocarbon copolymers which may also include pacifiers and other pressure sensitive adhesive modifiers. Commercially available acrylate copolymers include those made by Henkel Corporation under the trade names of Duro-Tak 87-900A (DT 87-900A), 87-901A, 87-9301, 87-9088, and 87-4098. […] Of specific interest is the pressure sensitive adhesive DT 87-4098 which is the only copolymer mentioned above that contains vinyl acetate and which has low levels of peel, shear and tack which can then be enhanced by the incorporation of large amounts of plasticizing liquids such as selegiline. Since these polymers are not crosslinked, the resistance of movement of the drug through the patch itself will be very low thus enhancing the permeability through human skin. Thus it is an object of our invention to use non-crosslinked acrylate copolymer PSAs in matrix selegiline patches, especially PSA DT 87-4098, to provide for excellent permeation of selegiline through human skin. Another object of our invention is to use humectant/solubilizers in the matrix patch to provide for stabilization of the patch through absorption and immobilization of the liquids in the patch. For example such humectant/solubilizers include PVP, PVP/VA, hydroxypropylcellulose, hydroxyethylcellulose, hydroxypropylmethylcellulose, methyl cellulose, Sodium carboxymethyl cellulose, colloidal silica, Xantham Gum, and polyacrylic acid. By experiment we determined that the best humectant/solubilizer for matrix patches delivering selegiline is PVP/VA. PVP/VA has the ability to properly disperse/solubilize within the PSA matrix and to provide additional stability to the matrix, absorb the liquid selegiline base and prevent syneresis. In prior art, PVP was specifically excluded from the use in selegiline patches, which in our case, where we use non crosslinked acrylic PSAs, are shown to be very important to the development of a patch of our invention. It is another object of our invention to incorporate in the matrix PSA humectant/solubilizers, and especially PVP/VA, in the amounts of between 3 to 30% on the weight of the PSA, to provide for better syneresis, adhesion to skin and more rapid permeation of the drug through the skin. The ability of the composition of our patch is such that volatile and non-volatile enhancers can be included in the formulations, which are specifically excluded in the prior art Volatile enhancers for the case of our invention are liquids that have a vapor pressure at 20 degrees Centigrade which is higher than 0.2 mm Hg. Volatile enhancers such as Dimethylsulfoxide (DMSO), decylmethylsulfoxide lactates such as ethyl lactate and propyl lactate isobutyl lactate and lauryl lactate can be incorporated in the PSA matrix system of the selegiline patch of our invention. Thus it is another object of our invention to incorporate volatile enhancers in our patch so as to increase the permeation of selegiline through the human skin and reduce the size of the patch. […]
smiles,measurement,setting,value
C#CCN(C)[C@H](C)Cc1ccccc1 [selegiline],solubility of selegiline in PSA,in non-crosslinked acrylic copolymer PSA DT 87-4098,59 wt %
same,solubility of selegiline in PSA,in non-crosslinked acrylic copolymer PSA DT 87-9088,118 wt %
same,solubility of selegiline in PSA,in non-crosslinked acrylic copolymer PSA DT 87-9301,81 wt %
same,solubility of selegiline in PSA,in polyisobutylene (PIB) PSA,8 wt %
same,solubility of selegiline in PSA,in silicone PSA,6 wt %
